Paper PMC9093745, “Carbohydrate Metabolism in Bacteria: Alternative Specificities in ADP-Glucose Pyrophosphorylases Open Novel Metabolic Scenarios and Biotechnological Tools” (Frontiers in Microbiology, 2022)

Experiments:
Type in all cases: biochemical
[1] = biological target: T1, R. fascians ADP-Glc PPase (Rhodococcoides fascians, UniProt A0A143QED7); test: activation of ADP-Glc synthesis, malachite green Pi release; conditions: allosteric activator; Glc-1P and ATP as substrates, Mg2+, pH 8.0, 37°C
T1 construct: gene glgC; recombinant in E. coli BL21 (DE3), His-tagged, IMAC purified; actinobacterial enzyme is a GlgC tetramer
T1 sequence (A0A143QED7 1-404): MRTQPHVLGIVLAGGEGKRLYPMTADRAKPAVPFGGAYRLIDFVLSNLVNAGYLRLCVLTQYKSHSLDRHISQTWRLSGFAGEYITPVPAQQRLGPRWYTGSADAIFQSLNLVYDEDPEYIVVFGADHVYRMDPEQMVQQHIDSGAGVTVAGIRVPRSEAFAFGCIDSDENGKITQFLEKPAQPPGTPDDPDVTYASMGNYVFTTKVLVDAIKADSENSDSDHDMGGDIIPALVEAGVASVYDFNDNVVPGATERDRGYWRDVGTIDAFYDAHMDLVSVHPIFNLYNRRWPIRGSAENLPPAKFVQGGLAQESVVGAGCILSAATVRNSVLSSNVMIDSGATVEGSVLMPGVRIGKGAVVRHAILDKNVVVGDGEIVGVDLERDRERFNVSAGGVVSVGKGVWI

[2] = biological target: T2, A. tumefaciens ADP-Glc PPase (Agrobacterium tumefaciens, UniProt P39669); test: saturation curve, malachite green Pi release coupled to pyrophosphatase; conditions: ATP co-substrate, Mg2+, pH 8.0, 37°C
T2 construct: gene glgC; recombinant in E. coli; proteobacterial enzyme is a GlgC homotetramer
T2 sequence (P39669 1-420): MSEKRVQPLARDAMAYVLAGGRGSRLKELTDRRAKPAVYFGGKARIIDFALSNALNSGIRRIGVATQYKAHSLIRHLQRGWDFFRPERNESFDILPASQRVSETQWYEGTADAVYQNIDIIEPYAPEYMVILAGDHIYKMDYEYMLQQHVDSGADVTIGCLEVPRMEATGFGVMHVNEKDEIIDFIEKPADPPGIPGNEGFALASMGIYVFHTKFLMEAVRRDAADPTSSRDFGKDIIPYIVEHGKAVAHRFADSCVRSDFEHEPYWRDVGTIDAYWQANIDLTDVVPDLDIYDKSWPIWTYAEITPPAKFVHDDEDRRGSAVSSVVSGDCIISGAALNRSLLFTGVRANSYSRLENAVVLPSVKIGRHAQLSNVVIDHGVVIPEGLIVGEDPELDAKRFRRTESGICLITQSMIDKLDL

[3] = biological target: T3, K. rhizophila ADP-Glc PPase (Kocuria rhizophila, UniProt B2GHR6); test: activation curve, malachite green Pi release coupled to pyrophosphatase; conditions: allosteric activator (Vmax 4-fold); Glc-1P and ATP as substrates, Mg2+, pH 8.0, 37°C; read-out: A0.5
T3 construct: gene glgC; recombinant in E. coli BL21 (DE3), His-tagged, IMAC purified; actinobacterial enzyme is a GlgC tetramer
T3 sequence (B2GHR6 1-414): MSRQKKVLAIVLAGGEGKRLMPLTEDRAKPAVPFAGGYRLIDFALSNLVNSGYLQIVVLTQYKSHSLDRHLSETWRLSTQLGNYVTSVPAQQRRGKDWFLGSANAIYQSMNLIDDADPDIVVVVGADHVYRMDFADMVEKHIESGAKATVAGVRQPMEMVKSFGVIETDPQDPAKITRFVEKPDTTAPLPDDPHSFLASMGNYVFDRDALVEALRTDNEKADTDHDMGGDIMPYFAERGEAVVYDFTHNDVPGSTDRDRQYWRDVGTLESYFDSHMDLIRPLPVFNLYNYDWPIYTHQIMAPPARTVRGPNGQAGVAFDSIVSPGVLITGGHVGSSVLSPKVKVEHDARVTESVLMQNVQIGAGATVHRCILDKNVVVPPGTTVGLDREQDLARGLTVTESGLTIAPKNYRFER

[4] = biological target: T4, S. coelicolor ADP-Glc PPase (Streptomyces coelicolor, UniProt P72394); test: as above; conditions: allosteric activator (4-fold); Glc-1P and ATP as substrates, Mg2+, pH 8.0, 37°C; read-out: A0.5
T4 construct: gene glgC; recombinant in E. coli BL21 (DE3), His-tagged, IMAC purified; actinobacterial enzyme is a GlgC tetramer
T4 sequence (P72394 1-399): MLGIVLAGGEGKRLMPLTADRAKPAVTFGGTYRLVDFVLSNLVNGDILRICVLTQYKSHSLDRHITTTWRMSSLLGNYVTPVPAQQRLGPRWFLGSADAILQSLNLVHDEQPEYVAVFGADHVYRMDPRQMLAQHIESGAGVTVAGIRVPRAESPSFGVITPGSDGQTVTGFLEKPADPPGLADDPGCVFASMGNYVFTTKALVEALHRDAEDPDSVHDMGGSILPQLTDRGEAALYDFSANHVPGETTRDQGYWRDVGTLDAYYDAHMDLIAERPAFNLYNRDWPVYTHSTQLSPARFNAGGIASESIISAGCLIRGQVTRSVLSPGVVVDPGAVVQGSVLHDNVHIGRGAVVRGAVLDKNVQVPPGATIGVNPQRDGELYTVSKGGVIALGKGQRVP

[5] = biological target: T2, A. tumefaciens ADP-Glc PPase; test: effect on ADP-Glc synthesis, malachite green Pi release; conditions: allosteric effector, lowers activity; Glc-1P and ATP as substrates, Mg2+, pH 8.0, 37°C
[6] = biological target: T5, R. albus ADP-Glc PPase GlgC (Hominimerdicola alba, UniProt E9SED8); test: activation of ADP-Glc synthesis, malachite green Pi release; conditions: allosteric activator; Glc-1P and ATP as substrates, Mg2+, pH 8.0, 37°C
T5 construct: recombinant in E. coli, IMAC purified; homotetramer
T5 sequence (E9SED8 1-400): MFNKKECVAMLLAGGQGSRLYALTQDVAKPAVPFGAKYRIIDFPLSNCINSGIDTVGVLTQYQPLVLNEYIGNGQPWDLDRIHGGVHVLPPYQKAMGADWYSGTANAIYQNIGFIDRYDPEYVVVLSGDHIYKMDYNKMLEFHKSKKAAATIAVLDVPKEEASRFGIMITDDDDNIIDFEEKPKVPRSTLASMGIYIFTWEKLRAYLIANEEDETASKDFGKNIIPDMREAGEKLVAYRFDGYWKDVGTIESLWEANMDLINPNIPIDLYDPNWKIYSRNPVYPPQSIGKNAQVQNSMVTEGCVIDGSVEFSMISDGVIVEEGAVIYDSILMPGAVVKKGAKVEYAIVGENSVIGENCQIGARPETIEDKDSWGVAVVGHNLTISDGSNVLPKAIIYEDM

[7] = biological target: T6, R. albus ADP-Glc PPase GlgC/GlgD (Hominimerdicola alba, UniProt E9SED8); test: as above; conditions: allosteric activator; Glc-1P and ATP as substrates, Mg2+, pH 8.0, 37°C
T6 construct: recombinant in E. coli, IMAC purified; heterotetramer; with Glucose-1-phosphate adenylyltransferase, GlgD subunit
T6 sequence (E9SED8 1-400): T5 sequence (E9SED8 1-400)
T6 sequence (E9SED9 1-371 partner): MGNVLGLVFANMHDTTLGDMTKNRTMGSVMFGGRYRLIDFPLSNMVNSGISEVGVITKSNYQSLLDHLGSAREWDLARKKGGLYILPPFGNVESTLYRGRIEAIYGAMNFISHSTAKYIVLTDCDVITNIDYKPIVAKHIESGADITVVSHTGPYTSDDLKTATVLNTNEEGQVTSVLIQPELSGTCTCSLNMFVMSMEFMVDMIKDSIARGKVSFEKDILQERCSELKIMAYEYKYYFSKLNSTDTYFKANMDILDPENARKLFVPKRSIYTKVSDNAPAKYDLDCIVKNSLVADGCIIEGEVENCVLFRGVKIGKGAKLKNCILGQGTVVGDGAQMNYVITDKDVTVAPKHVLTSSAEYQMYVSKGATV

With `O=P(O)(O)OC[C@H]1OC(O)[C@H](O)[C@@H](O)[C@@H]1O` (some centres unmarked) [Glc-6P] the fold activation [1] was ~ 8 fold.
`N[C@H]1[C@@H](OP(=O)(O)O)O[C@H](CO)[C@@H](O)[C@@H]1O` [GlcN-1P] was tested, and the Km [2] was “The enzyme was active with GlcN-1P as a substrate”.
In the case of `N[C@H]1C(O)O[C@H](COP(=O)(O)O)[C@@H](O)[C@@H]1O` (some centres unmarked) [GlcN-6P], the EC50 [3] is reported as 80 µM, the fold activation [1] is reported as ~ 8 fold and the EC50 [4] is reported as 3.55 ± 0.52 mM. For the same compound, the “% decrease of activity” value [5] was ~ 30%, the “activation of ADP-Glc synthesis, malachite green Pi release” value [6] was “both R. albus GlgC and GlgC/GlgD responded to GlcN-6P activation” and the “activation of ADP-Glc synthesis, malachite green Pi release” value [7] was “both R. albus GlgC and GlgC/GlgD responded to GlcN-6P activation”.
